Results: patent US11026943B2, “Aminoquinoline derivatives and uses thereof” (UNIVERSITY OF DELHI, priority 2012, dated 2021)

Experiment: Solubility (solvent listed in compound tables)
Assay type: physicochemical
Settings: solvent named, Table 3

SMILES | SOLUBILITY
COc1cc(Nc2nc(NCCNc3c4ccc(Cl)cc4nc4ccc(OC)cc34)nc(N3CCCCC3)n2)cc(OC)c1 [ATH 158] | DMSO
COc1cc(Nc2nc(NCCCNc3c4ccc(Cl)cc4nc4ccc(OC)cc34)nc(N3CCCCC3)n2)cc(OC)c1 [ATH 159] | DMSO
COc1ccc(Nc2nc(NCCNc3c4ccc(Cl)cc4nc4ccc(OC)cc34)nc(N3CCN(c4ccccc4)CC3)n2)cc1 [ATH 164] | DMSO
COc1ccc(Nc2nc(NCCNc3c4ccc(Cl)cc4nc4ccc(OC)cc34)nc(N(C)C)n2)cc1 [ATH 165] | DMSO
COc1ccc(Nc2nc(NCCCNc3c4ccc(Cl)cc4nc4ccc(OC)cc34)nc(N(C)C)n2)cc1 [ATH 166] | DMSO
COc1cc(Nc2nc(NCCNc3c4ccc(Cl)cc4nc4ccc(OC)cc34)nc(N3CCN(c4ccccc4)CC3)n2)cc(OC)c1 [ATH 170] | DMSO
COc1cc(Nc2nc(NCCCNc3c4ccc(Cl)cc4nc4ccc(OC)cc34)nc(N3CCN(c4ccccc4)CC3)n2)cc(OC)c1 [ATH 171] | DMSO
COc1ccc2nc3cc(Cl)ccc3c(NCCNc3nc(N4CCN(c5ccccc5)CC4)nc(N4CCN(c5ccccc5)CC4)n3)c2c1 [ATH 178] | DMSO
COc1ccc2nc3cc(Cl)ccc3c(CNCCNc3nc(N4CCN(c5ccccc5)CC4)nc(N4CCN(c5ccccc5)CC4)n3)c2c1 [ATH 179] | DMSO
COc1ccc(Nc2nc(NCCNc3c4ccc(Cl)cc4nc4ccc(OC)cc34)nc(N3CCOCC3)n2)cc1 [ATH 182] | DMSO
COc1ccc(Nc2nc(NCCNCc3c4ccc(Cl)cc4nc4ccc(OC)cc34)nc(N3CCOCC3)n2)cc1 [ATH 184] | DMSO
COc1ccc(Nc2nc(NCCNc3c4ccc(Cl)cc4nc4ccc(OC)cc34)nc(N3CCCCC3)n2)cc1 [ATH 189] | DMSO
COc1ccc(Nc2nc(NCCNCc3c4ccc(Cl)cc4nc4ccc(OC)cc34)nc(N3CCCCC3)n2)cc1 [ATH 191] | DMSO
COc1cc(Nc2nc(NCCNc3c4ccc(Cl)cc4nc4ccc(OC)cc34)nc(NC3CCCCC3)n2)cc(OC)c1 [ATH 192] | DMSO
COc1cc(Nc2nc(NCCNCc3c4ccc(Cl)cc4nc4ccc(OC)cc34)nc(NC3CCCCC3)n2)cc(OC)c1 [ATH 194] | DMSO
COc1ccc(Nc2nc(NCCNCc3c4ccc(Cl)cc4nc4ccc(OC)cc34)nc(N(C)C)n2)cc1 [ATH 196] | DMSO
COc1ccc(Nc2nc(NCCCNc3c4ccc(Cl)cc4nc4ccc(OC)cc34)nc(N3CCN(c4ccccc4)CC3)n2)cc1 [ATH 198] | DMSO
COc1ccc(Nc2nc(NCCNc3c4ccc(Cl)cc4nc4ccc(OC)cc34)nc(NC3CCCCC3)n2)cc1 [ATH 200] | DMSO
COc1ccc(Nc2nc(NCCCNc3c4ccc(Cl)cc4nc4ccc(OC)cc34)nc(NC3CCCCC3)n2)cc1 [ATH 201] | DMSO
COc1cc(Nc2ccnc(N3CCN(c4ccnc5cc(Cl)ccc45)CC3)n2)cc(OC)c1 [ATH 214] | DMSO
Clc1ccc2c(N3CCN(c4ccnc(Cl)n4)CC3)ccnc2c1 [ATH 218] | DMSO
COc1ccc(Nc2ccnc(N3CCN(c4ccnc5cc(Cl)ccc45)CC3)n2)cc1 [ATH 220] | DMSO
Fc1ccc(Nc2ccnc(N3CCN(c4ccnc5cc(Cl)ccc45)CC3)n2)cc1 [ATH 223] | DMSO
Clc1ccc2c(N3CCN(c4nccc(Nc5ccc(Br)cc5)n4)CC3)ccnc2c1 [ATH 226] | DMSO
Clc1ccc(Nc2ccnc(N3CCN(c4ccnc5cc(Cl)ccc45)CC3)n2)cc1 [ATH 227] | DMSO
Clc1ccc2c(N3CCN(c4ccnc(N5CCOCC5)n4)CC3)ccnc2c1 [ATH 228] | DMSO
Clc1ccc2c(N3CCN(c4ccnc(N5CCCCC5)n4)CC3)ccnc2c1 [ATH 231] | DMSO
Clc1ccc2c(N3CCN(c4nccc(Nc5ccccc5)n4)CC3)ccnc2c1 [ATH 232] | DMSO
Clc1ccc2c(N3CCN(c4ccnc(NC5CCCCC5)n4)CC3)ccnc2c1 [ATH 236] | DMSO
